# Patent US7354910B2, “Agent for treating inflammatory bowel diseases” (Seikagaku Kogyo Kabushiki Kaisha, priority 2001, dated 2008)
# System: trinitrobenzenesulfonic acid (TNBS)-induced inflammatory bowel disease model
# Assay: Effect of HA on TNBS-induced inflammatory bowel disease model
# Assay type: in vivo, rat
# Protocol: An inflammatory bowel disease model was prepared by carrying out irrigation of colon of a rat with 0.5 ml of 50 mg/ml TNBS (50% ethanol solution). The TNBS-induced inflammatory bowel disease model is a generally used model which has been established as an induced inflammatory bowel disease model (e.g., see GASTROENTEROLOGY, Vol. 109, No. 4, pp. 1344-1367 (1995), and the like).
# In order to examine effect of HA on inflammatory bowel diseases, the following drug effect and pharmacological test was carried out using the inflammatory bowel disease model prepared in the above.
# The inflammatory bowel disease model animals were divided into the following groups according to respective tested substances, and 2 ml of physiological saline solution (0.3% (w/v)) of each of the following tested substances was injected into the tail vein of each experimental animal.
# In the control group, the first administration was carried out just after the preparation of the above model, and then the administration was continuously carried out once a day for 20 days.
# In the HA post-administered group, the first administration was carried out just after the preparation of the above model, and then the administration was continuously carried out once a day for 20 days.
# In the HA pre-administered group, the first administration was carried out 24 hours before the preparation of the above model, and then the administration was continuously carried out once a day for 20 days.
# During the administration period of tested substances, surviving conditions of the animals were observed every day.
# In addition, observation and measurement of the following points were carried out on the animals survived on the 20th day after the first administration.
# Also, the following numerical values are expressed as “average value±standard error”.
# The large intestine was excised and cut open, and the contents were washed using physiological saline. After the adhered moisture was removed, the weight of the large intestine tissue was measured to calculate the weight per 1 cm bowel tissue. Also, the following numerical values are expressed as “average value±standard error”.
# Section samples of bowel tissue were prepared and observed under a light microscope.
# [1] = HA post-administered group in comparison with the control group, 20th day, light microscope, FIG. 3
substance,measurement,setting,value
sodium hyaluronate [HA],conditions of diarrhea,"HA administered groups, animals survived on the 20th day after the first administration, severe in control group",hardly observed
same,"cell infiltration, microscopic observation of bowel tissue",[1],inhibited significantly
same,"edema, microscopic observation of bowel tissue",[1],significantly alleviated
same,body weight (average value±standard error),"HA post-administered group, 20th day after the first administration, control 175 ± 4 g, p<0.001",203 ± 3 g
same,weight of the large intestine tissue per 1 cm bowel tissue (bowel tissue edema; average value±standard error),"HA post-administered group, 20th day after the first administration, control 448 ± 60, p<0.001",51 ± 1 mg/cm bowel tissue
same,survival ratio,"HA pre-administered group (first administration 24 hours before model preparation, 2 ml of 0.3% (w/v) into tail vein once a day), after a lapse of 200 hours",100%
same,survival rate in comparison with the control group,"each of the HA administered groups (post and pre), 2 ml of 0.3% (w/v) i.v. once a day for 20 days, p=0.0086 Logrank test, FIG. 1",significantly improved
